From patent US20230174485A1, “LIPOXYGENASE INHIBITORS” (SRI International, priority 2020, published 2023)
Where “and” joins values, the source holds several entries; their conditions need not be identical. Equal values may be shown once. Read-outs that look alike come from different tables or passages of the source.

Assays:
Assay type in all cases: biochemical
[1] = target: T1, recombinant 15-LOX enzyme (Homo sapiens, UniProt P16050); experiment: 15-LOX fluorescent assay; conditions: several values in one cell = repeat determinations
T1 sequence (P16050 1-662): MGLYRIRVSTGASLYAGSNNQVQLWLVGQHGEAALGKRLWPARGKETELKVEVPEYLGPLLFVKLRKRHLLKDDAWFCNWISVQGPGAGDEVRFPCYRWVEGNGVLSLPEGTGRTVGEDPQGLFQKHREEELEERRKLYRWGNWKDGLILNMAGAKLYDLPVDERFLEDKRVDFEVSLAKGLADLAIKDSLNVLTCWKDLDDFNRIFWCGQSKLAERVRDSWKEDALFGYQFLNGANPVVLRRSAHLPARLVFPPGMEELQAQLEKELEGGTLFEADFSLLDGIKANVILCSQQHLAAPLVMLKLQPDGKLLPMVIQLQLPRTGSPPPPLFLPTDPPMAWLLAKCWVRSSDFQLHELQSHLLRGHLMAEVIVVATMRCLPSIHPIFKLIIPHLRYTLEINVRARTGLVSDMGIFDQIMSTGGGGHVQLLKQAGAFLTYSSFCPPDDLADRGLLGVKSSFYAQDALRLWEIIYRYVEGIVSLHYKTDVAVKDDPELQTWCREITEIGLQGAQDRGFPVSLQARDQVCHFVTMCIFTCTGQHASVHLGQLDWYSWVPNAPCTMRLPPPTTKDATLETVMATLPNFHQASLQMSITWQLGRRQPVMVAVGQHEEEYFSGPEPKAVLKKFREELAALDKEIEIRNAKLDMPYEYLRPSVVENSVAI
Experimental: (§1) 12-LOX/15-LOX Fluorescent Assay
(§2) The enzyme assay (100 ul) contained 50 mM Tris, pH 7.5, 0.05% Tween-20, 20 μM AA/LA, 1 μM DHR123, and 100 nM recombinant 12-LOX enzyme/50 nM recombinant 15-LOX enzyme. Inhibitors (dissolved in DMSO) were plated at 1 μL into 96-well assay microplates followed by a 40 μL addition of a solution containing 12-LOX/15-LOX enzyme. Enzyme was pre-incubated with compounds for 15 mins. The assay was initiated by the addition of a 40 μL substrate solution containing AA/LA, and 20 μL addition of a solution containing DHR123. Enzymatic reaction proceeded for 30 min with kinetic reading at 500 nm excitation & 536 nm emission in SpectraMax Paradigm (MolecularDevice). Percent inhibition was calculated for each compound dose for IC50 curve fitting using 4 Parameter Logistic Model or Sigmoidal Dose-Response Model.

[2] = target: T2, recombinant 12-LOX enzyme (Homo sapiens, UniProt P18054); experiment: 12-LOX fluorescent assay; conditions: several values in one cell = repeat determinations; read-out: IC50 (μM) values for in vitro lipoxygenase inhibition, 12-LOX
T2 sequence (P18054 1-663): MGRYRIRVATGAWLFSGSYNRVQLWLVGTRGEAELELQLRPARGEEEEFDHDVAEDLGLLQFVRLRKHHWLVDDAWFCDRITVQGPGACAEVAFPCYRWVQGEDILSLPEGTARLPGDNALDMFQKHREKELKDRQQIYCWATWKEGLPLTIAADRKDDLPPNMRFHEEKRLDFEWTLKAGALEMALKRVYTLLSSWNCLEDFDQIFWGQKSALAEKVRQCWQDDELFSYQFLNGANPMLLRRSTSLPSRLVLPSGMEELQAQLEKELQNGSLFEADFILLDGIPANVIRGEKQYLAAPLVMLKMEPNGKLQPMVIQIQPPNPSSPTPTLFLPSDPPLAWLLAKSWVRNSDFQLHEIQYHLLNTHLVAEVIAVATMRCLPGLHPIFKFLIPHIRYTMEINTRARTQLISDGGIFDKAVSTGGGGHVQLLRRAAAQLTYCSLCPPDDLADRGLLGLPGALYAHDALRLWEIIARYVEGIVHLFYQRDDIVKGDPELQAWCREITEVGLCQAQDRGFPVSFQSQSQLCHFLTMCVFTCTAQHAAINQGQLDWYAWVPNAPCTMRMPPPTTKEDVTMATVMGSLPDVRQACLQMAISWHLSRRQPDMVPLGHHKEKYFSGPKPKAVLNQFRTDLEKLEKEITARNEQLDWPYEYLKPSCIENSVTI
Experimental: as §1, §2

recombinant 5-LOX = target: T3, recombinant 5-LOX (Homo sapiens, UniProt P09917); experiment: 5-LOX fluorescent assay; conditions: several values in one cell = repeat determinations; read-out: IC50 (μM) values for in vitro lipoxygenase inhibition, 5-LOX
T3 sequence (P09917 1-674): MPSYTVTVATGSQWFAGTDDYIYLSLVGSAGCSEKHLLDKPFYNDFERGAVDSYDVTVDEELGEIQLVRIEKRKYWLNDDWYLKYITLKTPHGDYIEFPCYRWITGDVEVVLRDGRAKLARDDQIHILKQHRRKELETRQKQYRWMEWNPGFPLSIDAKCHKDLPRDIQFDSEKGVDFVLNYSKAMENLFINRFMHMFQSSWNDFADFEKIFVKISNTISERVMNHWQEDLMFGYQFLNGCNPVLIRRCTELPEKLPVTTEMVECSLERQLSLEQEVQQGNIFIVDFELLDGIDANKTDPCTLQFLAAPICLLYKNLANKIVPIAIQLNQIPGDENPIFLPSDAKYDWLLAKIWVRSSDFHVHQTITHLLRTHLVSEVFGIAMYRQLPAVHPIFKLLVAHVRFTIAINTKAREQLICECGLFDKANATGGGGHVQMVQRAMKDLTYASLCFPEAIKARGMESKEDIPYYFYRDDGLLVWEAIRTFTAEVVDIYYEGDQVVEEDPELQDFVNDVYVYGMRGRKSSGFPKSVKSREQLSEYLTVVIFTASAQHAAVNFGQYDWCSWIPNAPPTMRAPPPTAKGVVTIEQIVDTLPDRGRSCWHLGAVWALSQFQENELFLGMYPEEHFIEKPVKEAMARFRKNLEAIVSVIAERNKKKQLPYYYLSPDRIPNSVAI
Experimental: 5-LOX FI assay Fluorescent Assay
The enzyme assay (100 μL) contained 50 mM Tris, pH 7.5, 0.1 mM EDTA, 0.3 mM CaCl2, 20 μM AA, 100 μM ATP, 1 μM DHR123, and recombinant 5-LOX cell lysate (0.5 μL/100 μL). Inhibitors (dissolved in DMSO) were plated at 1 μL into 96-well assay microplates followed by a 40 μL addition of a solution containing 5-LOX enzyme. Enzyme was pre-incubated with compounds for 15 mins. The assay was initiated by the addition of a 40 μL substrate solution containing AA and ATP, and 20 μL addition of a solution containing DHR123. Enzymatic reaction proceeded for 30 min with kinetic reading at 500 nm excitation & 536 nm emission in SpectraMax Paradigm (MolecularDevice). Percent inhibition was calculated for each compound dose for IC50 curve fitting using 4 Parameter Logistic Model or Sigmoidal Dose-Response Model.

[3] = IC50 (μM) values for in vitro lipoxygenase inhibition, 15-LOX
[4] = read-out: IC50 (μM) values for in vitro lipoxygenase inhibition, 15-LOX

| Structure (SMILES) | IC50 [1, 3] | IC50 [2] | IC50 (recombinant 5-LOX) | IC50 [1, 4] |
| --- | --- | --- | --- | --- |
| c1ccc(-c2cc3c(cc2NCCn2cncn2)[nH]c2ccccc23)cc1 [SS20308-0061-01, N-(2-(1H-1,2,4-triazol-1-yl)ethyl)-3-phenyl-9H-carbazol-2-amine] | 0.94 µM and 1.33 µM | 0.19 µM and 0.29 µM | 0.36 µM and 0.79 µM |  |
| CN(C)CC1(COc2c3[nH]c4ccc(F)cc4c3c(F)c3[nH]c4ccc(F)cc4c23)COC1 [SS20308-0185-01, N,N-dimethyl-1-(3-((2,8,12-trifluoro-5,11-dihydroindolo[3,2-b]carbazol-6-yloxy)methyl)oxetan-3-yl)methanamine] |  | 0.1 µM | 0.08 µM | 0.05 µM |
| c1ccc2c(c1)CCc1ccc(NCCCN3CCOCC3)cc1N2 [SS20308-0303-01, N-(3-morpholinopropyl)-10,11-dihydro-5H-dibenzo[b,f]azepin-3-amine] |  | 0.09 µM | 0.12 µM | 0.9 µM |
| CN(C)CCCOc1cccc2c1-c1[nH]c3ccccc3c1CS2 [SS20308-0090-01, 3-(6,11-dihydrothiochromeno[4,3-b]indol-1-yloxy)-N,N-dimethylpropan-1-amine] |  | 0.43 µM | 0.47 µM | 0.69 µM |
| CN(C)CCOc1cc2c(cc1-c1ccccc1[N+](=O)[O-])[nH]c1ccccc12 [SS20308-0076-01, N,N-dimethyl-2-(2-(2-nitrophenyl)-9H-carbazol-3-yloxy)ethanamine] |  | 3.59 µM | 4.54 µM | 5.7 µM |
| c1ccc2c(c1)CCc1cc(C3CCOCC3)c(NCCn3cncn3)cc1N2 [SS20308-0305-01, N-(2-(1H-1,2,4-triazol-1-yl)ethyl)-2-(tetrahydro-2H-pyran-4-yl)-10,11-dihydro-5H-dibenzo[b,f]azepin-3-amine] |  | 0.14 µM | 0.2 µM | 0.58 µM |
| CN(C)CCc1cc(Nc2ccc(Cl)cc2)cc2c1[nH]c1ccccc12 [SS20308-0257-01, N-(4-chlorophenyl)-1-(2-(dimethylamino)ethyl)-9H-carbazol-3-amine] |  |  | 0.01 µM and 0.04 µM |  |
| Fc1ccc2[nH]c3cc(-c4ccccc4)c(NCC4(Cn5cncn5)COC4)cc3c2c1 [SS20308-0186-01, N-((3-((1H-1,2,4-triazol-1-yl)methyl)oxetan-3-yl)methyl)-6-fluoro-2-phenyl-9H-carbazol-3-amine] |  | 0.03 µM and 0.01 µM | 0.04 µM and 0.01 µM | 0.05 µM and 0.02 µM |
| Fc1ccc2[nH]c3cc(C(F)(F)F)c(NCC4(Cn5cncn5)COC4)cc3c2c1 [SS20308-0295-01, N-((3-((1H-1,2,4-triazol-1-yl)methyl)oxetan-3-yl)methyl)-6-fluoro-2-(trifluoromethyl)-9H-carbazol-3-amine] |  | 0.22 µM | 0.66 µM | 0.49 µM |
| Fc1ccc2[nH]c3cc(-c4ccccc4)c(NCCn4cncn4)cc3c2c1 [SS20308-0094-01, N-(2-(1H-1,2,4-triazol-1-yl)ethyl)-6-fluoro-2-phenyl-9H-carbazol-3-amine] |  | 30 nM and 40 nM (3×) |  |  |
| CN(C)CCOc1c2[nH]c3ccccc3c2c(F)c2[nH]c3ccccc3c12 [SS20308-0102-01, 2-(12-fluoro-5,11-dihydroindolo[3,2-b]carbazol-6-yloxy)-N,N-dimethylethanamine] | 0.02 µM and 0.04 µM | 0.05 µM and 0.11 µM |  |  |
| CN(C)CCOc1cc2c3ccccc3[nH]c2c2[nH]c3ccccc3c12 [SS20308-0103-01, 2-(11,12-dihydroindolo[2,3-a]carbazol-5-yloxy)-N,N-dimethylethanamine] |  | 2.23 µM | 0.02 µM | 0.06 µM |
| CN(C)CCC(c1ccccc1)c1ccc2[nH]c3ccccc3c2c1 (stereo not drawn) [SS20308-0183-01, 3-(9H-carbazol-3-yl)-N,N-dimethyl-3-phenylpropan-1-amino] |  | 50.9 µM | 5.01 µM | 13.1 µM |
| c1ccc(-c2cc3c(cc2NCCn2cncn2)Nc2ccccc2CC3)cc1 [SS20308-0152-01, N-(2-(1H-1,2,4-triazol-1-yl)ethyl)-2-phenyl-10,11-dihydro-5H-dibenzo[b,f]azepin-3-amine] |  | 0.05 µM and 0.08 µM |  | 0.08 µM and 0.2 µM |
| CN(C)CCCc1c2[nH]c3ccc(F)cc3c2c(F)c2[nH]c3ccc(F)cc3c12 [SS20308-0163-01, N,N-dimethyl-3-(2,8,12-trifluoro-5,11-dihydroindolo[3,2-b]carbazol-6-yl)propan-1-amine] |  |  | 20 nM (2×) and 40 nM and 50 nM and 10 nM |  |
| c1ccc(CN(CCCn2cncn2)c2ccc3[nH]c4ccccc4c3c2)cc1 [SS20308-0097-01, N-(3-(1H-1,2,4-triazol-1-yl)propyl)-N-benzyl-9H-carbazol-3-amine] |  |  | 33 µM and > 1 µM |  |
| CC(C)CCOc1cc2c3ccccc3[nH]c2c2[nH]c3ccccc3c12 [SS20308-0127-01, 5-(isopentyloxy)-11,12-dihydroindolo[2,3-a]carbazole] |  | 0.09 µM and 0.04 µM and 0.14 µM |  | 0.12 µM and 0.08 µM and 0.17 µM |
| CN(C)CCOc1c(O)ccc2c1[nH]c1ccc(F)cc12 [SS20308-0004-01, 1-(2-(dimethylamino)ethoxy)-6-fluoro-9H-carbazol-2-ol] |  | 3.19 µM |  | 2.55 µM |
| c1ccc(N(CCn2cncn2)c2ccc3[nH]c4ccccc4c3c2)cc1 [SS20308-0108-01, N-(2-(1H-1,2,4-triazol-1-yl)ethyl)-N-phenyl-9H-carbazol-3-amine] | 1 µM and 0.41 µM and 0.86 µM |  | 0.55 µM and 0.26 µM and 0.35 µM |  |
| CN(C)CCCc1c2[nH]c3ccccc3c2cc2[nH]c3ccccc3c12 [SS20308-0104-01, 3-(5,11-dihydroindolo[3,2-b]carbazol-6-yl)-N,N-dimethylpropan-1-amine] | 0.02 µM |  |  |  |
